Experimental data taken from US12642797B2, “Coated granule, solid dispersion, and preparation containing vortioxetine hydrobromide for oral taste masking” (Seasons Biotechnology (Taizhou) Co., Ltd., priority 2019, dated 2026).
Structures can show the parent of a compound that is named as a salt.

Assays:
tongue = test: Comparative Example 2: comparison of taste of solid dispersion, hemihydrobromide powder and marketed drug product (20 subjects); format: in vivo, human; conditions: equivalent to 10 mg vortioxetine
Experimental: The solid dispersion equivalent to 10 mg vortioxetine prepared in Example 9b, vortioxetine hemihydrobromide powder equivalent to 10 mg vortioxetine, and the powder compressed by vortioxetine hydrobromide marketed drug product equivalent to 10 mg of vortioxetine hydrobromide passed through 100 mesh sieve, then they were put directly in front of the upper part of the tongue for one minute. There were 20 subjects in each powder group. After trying one powder taste, rinsed your mouth, and try another powder after there was no irritation. After trying the taste, record the bitterness level and tongue irritation, spit it out a few seconds later, rinse your mouth, record the time for the irritation to subside, eat 1-1.5 hours later, and record the irritation again.

[1] = Solubility in sodium acetate medium pH 6.8 simulating the oral environment (USP method); format: physicochemical; conditions: sodium acetate medium, pH 6.8, aqueous buffer, sodium acetate medium pH 6.8, USP method; read-out: Solubility
oral cavity and tongue = test: Taste and irritation test by subjects (self-made sample vs reference sample); format: in vivo, human
Experimental: In the examples, the taste masking effects of test samples were evaluated by the subject's perception of the bitterness and irritation of the oral cavity and tongue. The Taste and Irritation Classification Tested by the Subjects: [table]

[2] = average of 5 subjects, powder equivalent to 20 mg of vortioxetine

## Br.Cc1ccc(Sc2ccccc2N2CCNCC2)c(C)c1.Cc1ccc(Sc2ccccc2N2CCNCC2)c(C)c1 [Vortioxetine hemihydrobromide powder]
tongue
  Number of subjects experiencing different irritation: Basically no irritation: 6
tongue; no irritation after gargling
  Number of subjects experiencing different irritation: Slightly irritating, tolerable: 12^(2)
tongue; subside time more than 2 hours, not subsided after eating
  Number of subjects experiencing different irritation: unbearable: 2^(1)

## Cc1ccc(Sc2ccccc2N2CCNCC2)c(C)c1 [vortioxetine hydrobromide, 1-[2-(2,4-dimethyl-phenylsulfanyl)-phenyl]piperazine hydrobromide]
[1]
  solubility: 150 µg/mL
Oral cavity and tongue; Subject 1, 0-1 minute, powder equivalent to 20 mg of vortioxetine tasted, listed as Reference sample (2b), hydrobromide
  Instantaneous irritation: +++ (+ + + Strong irritation, intolerable)
Oral cavity and tongue; Subject 1, powder equivalent to 20 mg of vortioxetine tasted, listed as Reference sample (2b), hydrobromide
  Delayed irritation: >30 min
Oral cavity and tongue; Subject 1, powder equivalent to 20 mg of vortioxetine tasted, listed as Reference sample (4b), hydrobromide
  Delayed irritation: >30 min
Oral cavity and tongue; Subject 1, powder equivalent to 20 mg of vortioxetine tasted, listed as Reference sample (4c), hydrobromide
  Delayed irritation: >30 min
Oral cavity and tongue; Subject 1, powder equivalent to 20 mg of vortioxetine tasted, listed as Reference sample (7b), hydrobromide
  Delayed irritation: >30 min
Oral cavity and tongue; Subject 2, 0-1 minute, powder equivalent to 20 mg of vortioxetine tasted, listed as Reference sample (2b), hydrobromide
  Instantaneous irritation: ++ (+ + Irritating, tolerable)
Oral cavity and tongue; Subject 2, powder equivalent to 20 mg of vortioxetine tasted, listed as Reference sample (2b), hydrobromide
  Delayed irritation: >30 min
Oral cavity and tongue; Subject 2, powder equivalent to 20 mg of vortioxetine tasted, listed as Reference sample (4b), hydrobromide
  Delayed irritation: >30 min
Oral cavity and tongue; Subject 2, powder equivalent to 20 mg of vortioxetine tasted, listed as Reference sample (4c), hydrobromide
  Delayed irritation: >30 min
Oral cavity and tongue; Subject 2, powder equivalent to 20 mg of vortioxetine tasted, listed as Reference sample (7b), hydrobromide
  Delayed irritation: >30 min
Oral cavity and tongue; Subject 3, 0-1 minute, powder equivalent to 20 mg of vortioxetine tasted, listed as Reference sample (2b), hydrobromide
  Instantaneous irritation: +++ (+ + + Strong irritation, intolerable)
Oral cavity and tongue; Subject 3, powder equivalent to 20 mg of vortioxetine tasted, listed as Reference sample (2b), hydrobromide
  Delayed irritation: >30 min
Oral cavity and tongue; Subject 3, powder equivalent to 20 mg of vortioxetine tasted, listed as Reference sample (4b), hydrobromide
  Delayed irritation: >30 min
Oral cavity and tongue; Subject 3, powder equivalent to 20 mg of vortioxetine tasted, listed as Reference sample (4c), hydrobromide
  Delayed irritation: >30 min
Oral cavity and tongue; Subject 3, powder equivalent to 20 mg of vortioxetine tasted, listed as Reference sample (7b), hydrobromide
  Delayed irritation: >30 min
Oral cavity and tongue; Subject 4, 0-1 minute, powder equivalent to 20 mg of vortioxetine tasted, listed as Reference sample (2b), hydrobromide
  Instantaneous irritation: ++ (+ + Irritating, tolerable)
Oral cavity and tongue; Subject 4, 0-1 minute, powder equivalent to 20 mg of vortioxetine tasted, listed as Reference sample (4b), hydrobromide
  Instantaneous irritation: +++ (+ + + Strong irritation, intolerable)
Oral cavity and tongue; Subject 4, powder equivalent to 20 mg of vortioxetine tasted, listed as Reference sample (2b), hydrobromide
  Delayed irritation: >30 min
Oral cavity and tongue; Subject 4, powder equivalent to 20 mg of vortioxetine tasted, listed as Reference sample (4b), hydrobromide
  Delayed irritation: >30 min
Oral cavity and tongue; Subject 4, powder equivalent to 20 mg of vortioxetine tasted, listed as Reference sample (4c), hydrobromide
  Delayed irritation: >30 min
Oral cavity and tongue; Subject 4, powder equivalent to 20 mg of vortioxetine tasted, listed as Reference sample (7b), hydrobromide
  Delayed irritation: >30 min
Oral cavity and tongue; Subject 5, 0-1 minute, powder equivalent to 20 mg of vortioxetine tasted, listed as Reference sample (2b), hydrobromide
  Instantaneous irritation: +++ (+ + + Strong irritation, intolerable)
Oral cavity and tongue; Subject 5, 0-1 minute, powder equivalent to 20 mg of vortioxetine tasted, listed as Reference sample (4b), hydrobromide
  Instantaneous irritation: +++ (+ + + Strong irritation, intolerable)
Oral cavity and tongue; Subject 5, powder equivalent to 20 mg of vortioxetine tasted, listed as Reference sample (2b), hydrobromide
  Delayed irritation: >30 min
Oral cavity and tongue; Subject 5, powder equivalent to 20 mg of vortioxetine tasted, listed as Reference sample (4b), hydrobromide
  Delayed irritation: >30 min
Oral cavity and tongue; Subject 5, powder equivalent to 20 mg of vortioxetine tasted, listed as Reference sample (4c), hydrobromide
  Delayed irritation: >30 min
Oral cavity and tongue; Subject 5, powder equivalent to 20 mg of vortioxetine tasted, listed as Reference sample (7b), hydrobromide
  Delayed irritation: >30 min
Oral cavity and tongue; average of 5 subjects, powder equivalent to 20 mg of vortioxetine, listed as Reference sample (2b), hydrobromide
  Instantaneous irritation: +++ (+ + + Strong irritation, intolerable)
Oral cavity and tongue; average of 5 subjects, powder equivalent to 20 mg of vortioxetine, listed as Reference sample (4b), hydrobromide
  Instantaneous irritation: +++ (+ + + Strong irritation, intolerable)
Oral cavity and tongue; average of 5 subjects, powder equivalent to 20 mg of vortioxetine, listed as Reference sample (4c), hydrobromide
  Instantaneous irritation: +++ (+ + + Strong irritation, intolerable)
Oral cavity and tongue; average of 5 subjects, powder equivalent to 20 mg of vortioxetine, listed as Reference sample (7b), hydrobromide
  Instantaneous irritation: +++ (+ + + Strong irritation, intolerable)
Oral cavity and tongue; average of 5 subjects, powder equivalent to 20 mg of vortioxetine, listed as Reference sample (9b), hydrobromide
  Instantaneous irritation: +++ (+ + + Strong irritation, intolerable)
Oral cavity and tongue; average of 5 subjects, powder equivalent to 20 mg of vortioxetine, listed as Reference sample (10), hydrobromide
  Instantaneous irritation: ++ (+ + Irritating, tolerable)
Oral cavity and tongue; average of 5 subjects, powder equivalent to 20 mg of vortioxetine, listed as Reference sample (11b), hydrobromide
  Instantaneous irritation: +++ (+ + + Strong irritation, intolerable)
Oral cavity and tongue; average of 5 subjects, powder equivalent to 20 mg of vortioxetine, listed as Reference sample (11c), hydrobromide
  Instantaneous irritation: +++ (+ + + Strong irritation, intolerable)
Oral cavity and tongue; average of 5 subjects, powder equivalent to 20 mg of vortioxetine, listed as Reference sample (14b), hydrobromide
  Instantaneous irritation: +++ (+ + + Strong irritation, intolerable)

## Br.Cc1ccc(Sc2ccccc2N2CCNCC2)c(C)c1.Cc1ccc(Sc2ccccc2N2CCNCC2)c(C)c1 [vortioxetine hemihydrobromide]
Oral cavity and tongue; [2]
  Delayed irritation, time to disappear: more than 30 minutes
  Instantaneous irritation: ++ (+ + Irritating, tolerable)

## Br.Cc1ccc(Sc2ccccc2N2CCNCC2)c(C)c1 [Reference sample (1b), vortioxetine hydrobromide form α]
Oral cavity and tongue; Subject 1, 0-1 minute, powder equivalent to 20 mg of vortioxetine tasted
  Instantaneous irritation: +++ (+ + + Strong irritation, intolerable)
Oral cavity and tongue; Subject 1, powder equivalent to 20 mg of vortioxetine tasted
  Delayed irritation: >30 min
Oral cavity and tongue; Subject 2, 0-1 minute, powder equivalent to 20 mg of vortioxetine tasted
  Instantaneous irritation: +++ (+ + + Strong irritation, intolerable)
Oral cavity and tongue; Subject 2, powder equivalent to 20 mg of vortioxetine tasted
  Delayed irritation: >30 min
Oral cavity and tongue; Subject 3, 0-1 minute, powder equivalent to 20 mg of vortioxetine tasted
  Instantaneous irritation: +++ (+ + + Strong irritation, intolerable)
Oral cavity and tongue; Subject 3, powder equivalent to 20 mg of vortioxetine tasted
  Delayed irritation: >30 min
Oral cavity and tongue; Subject 4, 0-1 minute, powder equivalent to 20 mg of vortioxetine tasted
  Instantaneous irritation: +++ (+ + + Strong irritation, intolerable)
Oral cavity and tongue; Subject 4, powder equivalent to 20 mg of vortioxetine tasted
  Delayed irritation: >30 min
Oral cavity and tongue; Subject 5, 0-1 minute, powder equivalent to 20 mg of vortioxetine tasted
  Instantaneous irritation: +++ (+ + + Strong irritation, intolerable)
Oral cavity and tongue; Subject 5, powder equivalent to 20 mg of vortioxetine tasted
  Delayed irritation: >30 min
Oral cavity and tongue; [2]
  Delayed irritation, time to disappear: more than 30 minutes
  Instantaneous irritation: +++ (+ + + Strong irritation, intolerable)
